# Reference: paper PMC6751184, “Heme and hemoglobin utilization by Mycobacterium tuberculosis” (Nature Communications, 2019)
# Target: DppA (Rv3666c), substrate-binding protein of the Dpp transporter (Mycobacterium tuberculosis, UniProt I6X811)
# Assay: […]; also difference absorption spectroscopy
# DppA (Rv3666c), substrate-binding protein of the Dpp transporter, sequence (I6X811 entry or part of it): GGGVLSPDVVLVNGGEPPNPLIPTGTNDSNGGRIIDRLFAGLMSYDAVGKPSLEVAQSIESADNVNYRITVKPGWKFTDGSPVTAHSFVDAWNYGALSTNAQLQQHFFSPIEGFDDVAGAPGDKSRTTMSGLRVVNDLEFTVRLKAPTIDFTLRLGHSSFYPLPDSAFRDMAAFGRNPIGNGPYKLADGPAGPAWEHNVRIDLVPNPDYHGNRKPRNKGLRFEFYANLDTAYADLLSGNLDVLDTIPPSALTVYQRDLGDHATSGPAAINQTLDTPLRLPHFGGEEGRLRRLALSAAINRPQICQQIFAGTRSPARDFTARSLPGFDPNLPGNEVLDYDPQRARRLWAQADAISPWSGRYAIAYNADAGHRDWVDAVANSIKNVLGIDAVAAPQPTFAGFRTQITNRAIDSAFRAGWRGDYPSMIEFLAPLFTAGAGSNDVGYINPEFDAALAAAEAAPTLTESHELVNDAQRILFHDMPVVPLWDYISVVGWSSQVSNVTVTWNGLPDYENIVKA
smiles,measurement,value
C=CC1=C(C)C2=Cc3c(C=C)c(C)c4[n]3[Fe]([Cl])[n]3c(c(C)c(CCC(=O)O)c3=CC3=NC(=C4)C(C)=C3CCC(=O)O)=CC1=N2 [hemin],Kd,~1.5 µM
